Assay results reported in the NIST ThermoML archive (doi:10.1021/je101256z).
“And” between values parts separate entries of the source, which are not always exact repeats. Identical values can stand only once. ± gives the expanded uncertainty stated by the source.

Conditions: Liquid, Vibrating wire viscometry

CC(C)CCCCCCCOC(=O)c1ccccc1C(=O)OCCCCCCCC(C)C
Conditions | viscosity
274.07 K, 100 kPa | 606.7 ± 27 mPa·s
274.35 K, 100 kPa | 588.6 ± 26 mPa·s
282.95 K, 100 kPa | 270.2 ± 9.1 mPa·s
283.03 K, 100 kPa | 265.9 ± 8.9 mPa·s
298.15 K, 200 kPa | 87.63 ± 2 mPa·s [middle of 8 runs]
298.15 K, 10000 kPa | 112.08 ± 2.7 mPa·s and 112.26 ± 2.7 mPa·s
298.15 K, 20000 kPa | 143.67 ± 3.8 mPa·s and 143.41 ± 3.8 mPa·s and 143.42 ± 3.8 mPa·s
298.15 K, 40000 kPa | 231.39 ± 7.2 mPa·s [middle of 6 runs]
298.25 K, 100 kPa | 87.67 ± 2.1 mPa·s
305.15 K, 200 kPa | 57.12 ± 1.2 mPa·s [middle of 5 runs]
305.26 K, 100 kPa | 57.43 ± 1.2 mPa·s
313.15 K, 200 kPa | 37.1 ± 0.76 mPa·s [middle of 5 runs]
313.15 K, 10100 kPa | 46.34 ± 0.96 mPa·s and 46.33 ± 0.96 mPa·s and 46.23 ± 0.96 mPa·s
313.15 K, 20000 kPa | 57.28 ± 1.2 mPa·s and 57.35 ± 1.2 mPa·s and 57.32 ± 1.2 mPa·s
313.15 K, 40000 kPa | 87.15 ± 1.9 mPa·s and 87.13 ± 1.9 mPa·s and 87.03 ± 1.9 mPa·s
313.15 K, 59900 kPa | 130.49 ± 3.3 mPa·s and 130.29 ± 3.3 mPa·s
313.15 K, 60000 kPa | 130.33 ± 3.8 mPa·s
313.15 K, 80000 kPa | 194.08 ± 5.6 mPa·s and 194.41 ± 5.7 mPa·s and 195.2 ± 5.7 mPa·s
313.27 K, 100 kPa | 37.41 ± 0.78 mPa·s
327.83 K, 100 kPa | 19.32 ± 0.4 mPa·s
343.15 K, 200 kPa | 10.99 ± 0.23 mPa·s [middle of 5 runs]
343.15 K, 10100 kPa | 13.33 ± 0.29 mPa·s and 13.35 ± 0.29 mPa·s
343.15 K, 20100 kPa | 15.85 ± 0.33 mPa·s and 15.86 ± 0.33 mPa·s
343.15 K, 40000 kPa | 22.04 ± 0.47 mPa·s and 22.05 ± 0.47 mPa·s
343.15 K, 80100 kPa | 41.22 ± 0.89 mPa·s and 41.24 ± 0.89 mPa·s
343.15 K, 137100 kPa | 95.56 ± 2.2 mPa·s and 95.61 ± 2.2 mPa·s
343.24 K, 100 kPa | 11.1 ± 0.23 mPa·s
343.33 K, 100 kPa | 11.09 ± 0.23 mPa·s
343.53 K, 100 kPa | 11.15 ± 0.23 mPa·s
368.15 K, 300 kPa | 5.65 ± 0.12 mPa·s
368.21 K, 100 kPa | 5.627 ± 0.12 mPa·s
368.54 K, 100 kPa | 5.577 ± 0.12 mPa·s
373.15 K, 300 kPa | 5.04 ± 0.1 mPa·s and 5.05 ± 0.1 mPa·s and 4.92 ± 0.1 mPa·s
373.15 K, 20100 kPa | 6.876 ± 0.14 mPa·s and 6.866 ± 0.14 mPa·s
373.15 K, 40000 kPa | 9.055 ± 0.19 mPa·s and 9.075 ± 0.19 mPa·s and 9.085 ± 0.19 mPa·s
373.15 K, 80100 kPa | 15.22 ± 0.32 mPa·s and 15.23 ± 0.32 mPa·s
373.15 K, 137200 kPa | 30.11 ± 0.65 mPa·s and 30.12 ± 0.65 mPa·s and 30.15 ± 0.65 mPa·s

Cc1cccc2ccccc12 [1-methylnaphthalene]
298.15 K
Conditions | viscosity
200 kPa | 2.9 ± 0.07 mPa·s and 2.89 ± 0.07 mPa·s
1000 kPa | 2.94 ± 0.07 mPa·s and 2.93 ± 0.07 mPa·s and 2.92 ± 0.07 mPa·s
10000 kPa | 3.24 ± 0.07 mPa·s
39900 kPa | 4.4 ± 0.1 mPa·s and 4.41 ± 0.1 mPa·s
40000 kPa | 4.42 ± 0.1 mPa·s
79900 kPa | 6.65 ± 0.15 mPa·s and 6.67 ± 0.15 mPa·s
80000 kPa | 6.68 ± 0.15 mPa·s and 6.65 ± 0.15 mPa·s
120100 kPa | 10.17 ± 0.24 mPa·s and 10.12 ± 0.23 mPa·s
